Assay: Comparative tests for stability of the crystalline form E and other crystalline forms (storage, total impurity and content)
Format: physicochemical
Details: for Stability compared between solid forms (conclusion from Table 5): stored 1 year at 6° C. and −20° C.
Procedure: Comparative tests for stability of the crystalline form E and other crystalline forms. Crystalline form A and crystalline form B of ertapenem sodium were prepared according to the methods disclosed in WO03026572, crystalline form C of ertapenem sodium was prepared according to the method disclosed in WO03027067, crystalline form D of ertapenem sodium was prepared according to the method disclosed in WO2009150630, and amorphous product of ertapenem sodium was prepared according the method disclosed in CN1752090A. The above-mentioned crystalline forms A, B, C, D, the amorphous solid of ertapenem sodium, and the crystalline form E prepared according to Example 1 were stored for 1 year under refrigerating at 6° C. and freezing at −20° C., and were sampled at month 1, month 3, month 6, month 9, and month 12, respectively, and the total impurity and content of the reserved samples were tested, and the specific data are shown in Table 5: […]

SMILES | Content (Freezing −20° C., month 0) [%] | Total impurity (Freezing −20° C., month 0) [%] | Content (Freezing −20° C., month 3) [%] | Total impurity (Freezing −20° C., month 3) [%] | Content (Freezing −20° C., month 6) [%] | Total impurity (Freezing −20° C., month 6) [%] | Content (Freezing −20° C., month 9) [%] | Total impurity (Freezing −20° C., month 9) [%] | Content (Freezing −20° C., month 12) [%] | Total impurity (Freezing −20° C., month 12) [%] | Content (Refrigerating 6° C., month 0) [%] | Total impurity (Refrigerating 6° C., month 0) [%] | Content (Refrigerating 6° C., month 3) [%] | Total impurity (Refrigerating 6° C., month 3) [%] | Content (Refrigerating 6° C., month 6) [%] | Total impurity (Refrigerating 6° C., month 6) [%] | Content (Refrigerating 6° C., month 9) [%] | Total impurity (Refrigerating 6° C., month 9) [%] | Content (Refrigerating 6° C., month 12) [%] | Total impurity (Refrigerating 6° C., month 12) [%] | also measured
C[C@@H](O)[C@H]1C(=O)N2C(C(=O)[O-])=C(S[C@@H]3CN[C@H](C(=O)Nc4cccc(C(=O)O)c4)C3)[C@H](C)[C@H]12.[Na+] [Crystalline form D, ertapenem sodium] | 98.8 | 1.0 | 98.7 | 1.1 | 98.7 | 1.1 | 98.6 | 1.2 | 98.5 | 1.2 | 98.8 | 1.0 | 98.0 | 1.9 | 96.8 | 3.1 | 94.7 | 4.6 | 93.2 | 6.5 | –
C[C@@H](O)[C@H]1C(=O)N2C(C(=O)[O-])=C(S[C@@H]3CN[C@H](C(=O)Nc4cccc(C(=O)O)c4)C3)[C@H](C)[C@H]12.[Na+] [Amorphous, ertapenem sodium] | 98.5 | 1.2 | 98.4 | 1.2 | 98.5 | 1.3 | 98.2 | 1.5 | 98.1 | 1.7 | 98.5 | 1.2 | 97.9 | 2.1 | 94.5 | 5.3 | 92.3 | 7.1 | 90.1 | 9.3 | –
C[C@@H](O)[C@H]1C(=O)N2C(C(=O)[O-])=C(S[C@@H]3CN[C@H](C(=O)Nc4cccc(C(=O)O)c4)C3)[C@H](C)[C@H]12.[Na+] [Crystalline form C, ertapenem sodium] | 99.2 | 0.8 | 99.2 | 0.8 | 99.1 | 0.8 | 99.2 | 0.8 | 99.2 | 0.8 | 99.2 | 0.8 | 98.7 | 1.1 | 98.2 | 1.4 | 97.8 | 1.9 | 96.9 | 3.0 | Stability compared between solid forms (conclusion from Table 5): comparable stability, which is more stable than the amorphous product and the crystalline form D

Continued, in another order:

Content (Freezing −20° C., month 0) [%] | Total impurity (Freezing −20° C., month 0) [%] | Content (Freezing −20° C., month 3) [%] | Total impurity (Freezing −20° C., month 3) [%] | Content (Freezing −20° C., month 6) [%] | Total impurity (Freezing −20° C., month 6) [%] | Content (Freezing −20° C., month 9) [%] | Total impurity (Freezing −20° C., month 9) [%] | Content (Freezing −20° C., month 12) [%] | Total impurity (Freezing −20° C., month 12) [%] | Content (Refrigerating 6° C., month 0) [%] | Total impurity (Refrigerating 6° C., month 0) [%] | Content (Refrigerating 6° C., month 3) [%] | Total impurity (Refrigerating 6° C., month 3) [%] | Content (Refrigerating 6° C., month 6) [%] | Total impurity (Refrigerating 6° C., month 6) [%] | Content (Refrigerating 6° C., month 9) [%] | Total impurity (Refrigerating 6° C., month 9) [%] | Content (Refrigerating 6° C., month 12) [%] | Total impurity (Refrigerating 6° C., month 12) [%] | SMILES | also measured
99.1 | 0.8 | 99.0 | 0.8 | 99.1 | 0.8 | 99.0 | 0.8 | 98.9 | 0.8 | 99.1 | 0.8 | 98.5 | 1.3 | 98.1 | 1.6 | 97.5 | 2.1 | 96.8 | 3.2 | C[C@@H](O)[C@H]1C(=O)N2C(C(=O)[O-])=C(S[C@@H]3CN[C@H](C(=O)Nc4cccc(C(=O)O)c4)C3)[C@H](C)[C@H]12.[Na+] (relative stereo) [Crystalline form E, (1R,5S,6S,8R,2S*,4S*)-2-[2-[(3-carboxyphenyl)carbamoyl]-pyrrolidinyl-4-thio]-6-(1-hydroxyethyl)-1-methylcarbapenem-3-carboxylic acid monosodium salt] | Stability compared between solid forms (conclusion from Table 5): comparable stability, which is more stable than the amorphous product and the crystalline form D
99.1 | 0.8 | 99.1 | 0.8 | 99.0 | 0.9 | 99.0 | 0.8 | 98.9 | 0.9 | 99.1 | 0.8 | 98.3 | 1.4 | 98.0 | 1.7 | 97.5 | 2.1 | 96.6 | 3.3 | C[C@@H](O)[C@H]1C(=O)N2C(C(=O)[O-])=C(S[C@@H]3CN[C@H](C(=O)Nc4cccc(C(=O)O)c4)C3)[C@H](C)[C@H]12.[Na+] [Crystalline form B, ertapenem sodium] | Stability compared between solid forms (conclusion from Table 5): comparable stability, which is more stable than the amorphous product and the crystalline form D
99.2 | 0.7 | 99.2 | 0.7 | 99.1 | 0.7 | 99.2 | 0.7 | 99.1 | 0.7 | 99.2 | 0.7 | 98.6 | 1.2 | 98.1 | 1.5 | 97.6 | 2.0 | 96.9 | 3.0 | C[C@@H](O)[C@H]1C(=O)N2C(C(=O)[O-])=C(S[C@@H]3CN[C@H](C(=O)Nc4cccc(C(=O)O)c4)C3)[C@H](C)[C@H]12.[Na+] [Crystalline form A, ertapenem sodium] | Stability compared between solid forms (conclusion from Table 5): comparable stability, which is more stable than the amorphous product and the crystalline form D
